The text below walks through data of ChEMBL document CHEMBL5505996, “Discovery of novel osthole derivatives exerting anti-inflammatory effect on DSS-induced ulcerative colitis and LPS-induced acute lung injury in mice” (Eur J Med Chem, 2024).

Each structure is given as a SMILES string. Values after ≈ are worked out from the molar mass of the structure shown. Active and inactive are the calls of the source. No cut-off for these calls is given here.

The test system of data set [1] is J774.A1. In words: Antiinflammatory activity against LPS-induced mouse J774.A1 cells assessed as inhibition of IL-6 release at 10 uM pretreated for 30 mins followed by LPS stimulation and measured after 24 hrs by ELISA relative to control. The data set is classed as functional. The following applies: time 24.5 hrs.
The test system of data set [2] is RAW264.7. In words: Antiinflammatory activity against LPS-induced mouse RAW264.7 cells assessed as inhibition of TNF-alpha release pretreated for 30 mins followed by LPS stimulation and measured after 24 hrs by ELISA. Type of data set: functional, cell-based.
Data set [3] deals with RAW264.7. As to the kind of experiment: Antiinflammatory activity against LPS-induced mouse RAW264.7 cells assessed as inhibition of IL-6 release pretreated for 30 mins followed by LPS stimulation and measured after 24 hrs by ELISA. The data set is classed as functional, cell-based.
Data set [4] deals with J774.A1. In words: Antiinflammatory activity against LPS-induced mouse J774.A1 cells assessed as inhibition of IL-6 release at 1.25 to 10 uM pretreated for 30 mins followed by LPS stimulation and measured after 24 hrs by ELISA. Type of data set: functional, cell-based. The following applies: dose 1.25-10 µM, time 24.5 hrs.
Data set [5] concerns J774.A1. As to the kind of experiment: Antiinflammatory activity against LPS-induced mouse J774.A1 cells assessed as inhibition of TNF-alpha release at 1.25 to 10 uM pretreated for 30 mins followed by LPS stimulation and measured after 24 hrs by ELISA. Type of data set: functional, cell-based. The following applies: dose 1.25-10 µM, time 24.5 hrs.
Data set [6] has as its system THP-1. As to the kind of experiment: Antiinflammatory activity against LPS-induced PMA-differentiated human THP-1 cells assessed as inhibition of IL-6 release at 5 to 40 uM pretreated for 30 mins followed by LPS stimulation and measured after 24 hrs by ELISA. The data set is classed as functional, cell-based. Conditions: dose 5-40 µM, time 24.5 hrs.
Data set [7] in a line: Aqueous solubility of compound in phosphate buffer at pH 7.4 measured after 24 hrs by HPLC analysis. Type of data set: physicochemical.
The test system of data set [8] is THP-1. As to the kind of experiment: Antiinflammatory activity against LPS-induced PMA-differentiated human THP-1 cells assessed as inhibition of TNF-alpha release at 5 to 40 uM pretreated for 30 mins followed by LPS stimulation and measured after 24 hrs by ELISA. Type of data set: functional, cell-based. The following applies: dose 5-40 µM, time 24.5 hrs.
In data set [9] the test system is J774.A1. In words: Cytotoxicity against mouse J774.A1 cells assessed as reduction in cell proliferation at 10 uM measured after 24 hrs by CCK-8 assay. The data set is classed as toxicity, cell-based. The following applies: j774.a1, 24 h.
For data set [10], the system named is Mus musculus. As to the kind of experiment: Antiinflammatory activity against C57BL/6 mouse model of DSS induced ulcerative colitis assessed as reduction in IL-6 level in serum at 100 mg/kg, po administered daily for 10 days. The data set is classed as functional, organism-based. The following applies: time 10.0 day.
For data set [11], the system named is Mus musculus. In words: Antiinflammatory activity against C57BL/6 mouse model of DSS induced ulcerative colitis assessed as reversal of shortened intestinal length due to fecal obstruction at 100 mg/kg, po administered daily for 10 days. Type of data set: functional, organism-based. Conditions: time 10.0 day.
For data set [12], the system named is Mus musculus. In words: Antiinflammatory activity against C57BL/6 mouse model of DSS induced ulcerative colitis assessed as reversal of weight loss at 100 mg/kg, po administered daily for 10 days. Conditions: time 10.0 day. The data set is classed as functional, organism-based.
In data set [13] the test system is Mus musculus. In words: Antiinflammatory activity against C57BL/6 mouse model of DSS induced ulcerative colitis assessed as reduction in inflammatory cytokines infiltration in intestine at 100 mg/kg, po administered daily for 10 days by immunohistochemical staining based analysis. The following applies: time 10.0 day. The data set is classed as functional, organism-based.

For data set [14], the system named is J774.A1. As to the kind of experiment: Antiinflammatory activity against LPS-induced mouse J774.A1 cells assessed as inhibition of IL-6 release at 10 uM pretreated for 30 mins followed by LPS stimulation and measured after 24 hrs by ELISA. Type of data set: functional, cell-based. The following applies: time 24.5 hrs.
Data set [15] concerns Mus musculus. In words: Antiinflammatory activity against C57BL/6 mouse model of LPS induced acute lung injury assessed as reduction in total number of cells in BALF at 20 mg/kg, po administered every 12 hrs for 3 times followed by LPS stimulation for 6 hrs starting from 30 mins post last dose. The data set is classed as functional, organism-based. Conditions: time 42.5 hrs.

Data set [16] has as its system Mus musculus. As to the kind of experiment: Antiinflammatory activity against C57BL/6 mouse model of LPS induced acute lung injury assessed as reduction in IL-6 mRNA expression in lung at 20 mg/kg, po administered every 12 hrs for 3 times followed by LPS stimulation for 6 hrs starting from 30 mins post last dose by RT-qPCR analysis. Type of data set: functional, organism-based. Conditions: time 42.5 hrs.

Data set [17] relates to Mus musculus. As to the kind of experiment: Antiinflammatory activity against C57BL/6 mouse model of LPS induced acute lung injury assessed as reduction in IL-6 level in serum at 20 mg/kg, po administered every 12 hrs for 3 times followed by LPS stimulation for 6 hrs starting from 30 mins post last dose by ELISA. The data set is classed as functional, organism-based. Conditions: time 42.5 hrs.

The subject of data set [18] is Mus musculus. As to the kind of experiment: Antiinflammatory activity against C57BL/6 mouse model of LPS induced acute lung injury assessed as reduction in IL-6 level in BALF at 20 mg/kg, po administered every 12 hrs for 3 times followed by LPS stimulation for 6 hrs starting from 30 mins post last dose by ELISA. Type of data set: functional, organism-based. The following applies: time 42.5 hrs.

Data set [19] relates to Mus musculus. As to the kind of experiment: Antiinflammatory activity against C57BL/6 mouse model of LPS induced acute lung injury assessed as reduction in pulmonary edema by measuring reduction in lung wet/dry ratio at 20 mg/kg, po administered every 12 hrs for 3 times followed by LPS stimulation for 6 hrs starting from 30 mins post last dose. Conditions: time 42.5 hrs. The data set is classed as functional, organism-based.

Data set [20] concerns Mus musculus. In words: Antiinflammatory activity against C57BL/6 mouse model of LPS induced acute lung injury assessed as reduction in TNF-alpha mRNA expression in lung at 20 mg/kg, po administered every 12 hrs for 3 times followed by LPS stimulation for 6 hrs starting from 30 mins post last dose by RT-qPCR analysis. The data set is classed as functional, organism-based. The following applies: time 42.5 hrs.

Turning to `CC(C)=CCc1c(OCc2ccc(C)cc2)ccc2ccc(=O)oc12`, in data set [1], the inhibition at 10 µM was found to be 88.7%. The same measure, in the same setting: as for `CC(C)=CCc1c(OCCCN2CCCC2)ccc2ccc(=O)oc12`, the figure is 63.3%. Take `COc1ccc2ccc(=O)oc2c1CC=C(C)C` [OSTHOLE]: the IC50 worked out at 113 µM in data set [2] and 146 µM in data set [3]. In addition, the outcome in data set [4], in data set [5], in [6] and in [8] was inactive. In [7], this molecule yielded a solubility at 24 h of 10 µg/mL (≈ 40.9 µM).

For `CC(C)=CCc1c(OCCN2CCN(C)CC2)ccc2ccc(=O)oc12`, the inhibition at 10 µM in data set [1] was 69%. Still for that read-out and setting: with `CC(C)=CCc1c(OCC2CCCO2)ccc2ccc(=O)oc12` (centres undefined) the figure was 82.5%; with `CC(C)=CCc1c(OCCN2CCCC(C)C2)ccc2ccc(=O)oc12` (centres undefined), 31.4%; with `CC(C)=CCc1c(OCCCN2CCN(C)CC2)ccc2ccc(=O)oc12`, 81.9%. Same read-out and setting: as for `CC(C)=CCc1c(OCC2CO2)ccc2ccc(=O)oc12` (centres undefined), the figure is 82.3%.

Consider `CC(C)=CCc1c(OCC(=O)Nc2ccccc2)ccc2ccc(=O)oc12`, for which the inhibition at 10 µM in data set [1] was 48.5%. For `CC(C)=CCc1c(OCC2CC2)ccc2ccc(=O)oc12`, the inhibition at 10 µM in [1] worked out at 64.2%. Take `CC(C)=CCc1c(OCC(=O)Nc2ccccc2Br)ccc2ccc(=O)oc12`: in data set [9], the Activity result is “Toxic”. In addition, the inhibition at 10 µM in data set [1] was found to be 88.3%.

In the case of `Nc1ccc(O)c(C(=O)O)c1`, the result in data set [10], in [11], in data set [12] and in data set [13] was Active. As to `CC(C)=CCc1c(OCC(=O)NCCCN2CCOCC2)ccc2ccc(=O)oc12`, the inhibition at 10 µM in data set [1] was 21.5%.

Take `CC(C)=CCc1c(OCCCN2CCOCC2)ccc2ccc(=O)oc12`: the inhibition at 10 µM in data set [1] was found to be 69%. The same measure, in the same setting: with `CC(C)=CCc1c(OCC2CCCCC2)ccc2ccc(=O)oc12` the figure was 88%. For the molecule `CCN1CCN(CCCOc2ccc3ccc(=O)oc3c2CC=C(C)C)CC1`, in data set [9], the Activity entry was “Toxic”. The inhibition at 10 µM in data set [1] amounted to 92.2%. Consider `CC(C)=CCc1c(OCCNCCN2CCOCC2)ccc2ccc(=O)oc12`, for which the inhibition at 10 µM in [1] is 46.8%. Still for that read-out and setting: with `CC(C)=CCc1c(OCCN2CCOCC2)ccc2ccc(=O)oc12` the figure was 71.7%. The same measure, in the same setting: with `CC(C)=CCc1c(OCCCCN2CCN(C)CC2)ccc2ccc(=O)oc12` the figure was 82.3%.

For `CC(C)=CCc1c(OCCN2CCCC2)ccc2ccc(=O)oc12`, in data set [14], the result was inactive.

For the molecule `CCN1CCN(C(=O)COc2ccc3ccc(=O)oc3c2CC=C(C)C)CC1`, in data set [1], the inhibition at 10 µM worked out at 46%.

Consider `CC(C)=CCc1c(OCCN(C)C)ccc2ccc(=O)oc12`, for which the outcome in data set [14] was inactive. Take `CC(C)=CCc1c(OCCN2CCCCC2)ccc2ccc(=O)oc12`: the inhibition at 10 µM in data set [1] worked out at 10.6%.

For the molecule `C[C@@H]1C[C@H]2[C@@H]3CCC4=CC(=O)C=C[C@]4(C)[C@@]3(F)[C@@H](O)C[C@]2(C)[C@@]1(O)C(=O)CO`, the result in [15], in [16], in data set [17], in data set [18], in data set [19] and in data set [20] was Active. In the case of `COc1cccc(COc2ccc3ccc(=O)oc3c2CC=C(C)C)c1`, the inhibition at 10 µM in data set [1] was found to be 80.2%. The same measure, in the same setting: as for `CC(C)=CCc1c(OCc2cccc(F)c2)ccc2ccc(=O)oc12`, the figure is 68.8%; as for `CC(C)=CCc1c(OCc2cccc(C)c2)ccc2ccc(=O)oc12`, 77.9%; as for `CCN1CCN(CCOc2ccc3ccc(=O)oc3c2CC=C(C)C)CC1`, 88.6%.
